Experimental data from publication PMC6253249, “Protein-Ligand Fishing in planta for Biologically Active Natural Products Using Glutathione Transferases” (Frontiers in Plant Science, 2018).
Each block holds one compound with its values, some of them ahead of it.

Key:
AtGSTF2 = molecular target: T1, AtGSTF2 (Arabidopsis thaliana, UniProt P46422); assay: Isothermal titration calorimetry (ITC) of ligand binding to Strep-tagged AtGSTF2; details: for N (binding stoichiometry) / ΔH: 25°C, HBS, 1 mM glutathione, 0.1% w/v Tween 20
T1 construct: Strep-tag (N); made in house; host or cells: Escherichia coli (minimal medium)
T1 sequence (P46422 1-212): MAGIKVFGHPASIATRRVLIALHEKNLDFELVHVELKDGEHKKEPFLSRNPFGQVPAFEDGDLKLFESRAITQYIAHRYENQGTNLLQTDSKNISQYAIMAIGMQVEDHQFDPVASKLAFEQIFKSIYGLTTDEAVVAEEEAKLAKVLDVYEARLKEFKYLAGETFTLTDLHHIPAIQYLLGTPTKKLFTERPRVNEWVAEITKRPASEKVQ
Experimental: (§1) Isothermal titration calorimetry (ITC) experiments were performed at 25°C in HBS buffer and analyzed using a VP-ITC instrument with Origin 7.0 software (GE Healthcare, Amersham, United Kingdom). Where ligands were added in solvents, an equivalent volume of ethanol was used as control. With the flavonols, 0.1% w/v Tween 20 was used to increase ligand solubility. In addition to titrating ligand into protein, control titrations of ligand into buffer and buffer into protein were performed. For studies with AtGSTF2, the respective Strep-tagged protein was purified from E. coli grown in minimal medium to minimize contamination with pre-bound ligands and used in ITC assuming 1:1 binding to ligand, as previously determined ([Dixon et al., 2011]).
(§2) To investigate the binding characteristics of the ligands to the GSTs, isothermal titration calorimetry (ITC) was used to determine binding affinity and stoichiometry. With AtGSTF2 the commercially available compounds kaempferol and kaempferol-3,7′-dimethylether were used, along with the methylated flavonols purified from the surface of the tobacco leaves (Table 2 and Supplementary Figure S4). […] When AtGSTU19 was tested with ISSG, tight and stoichiometric binding was determined (Table 2 and Supplementary Figure S5). AtGSTU19 enzyme activity, as determined by the GSH conjugation of 1-chloro-2,4-dinitrobenzene, was inhibited by ISSG in a competitive manner with respect to GSH, confirming that ISSG binding occurred at the enzyme active site.
Supplementary Figure S4. Typical ITC data for GSTF2 (7.7 µM) binding to compound 11 (putative kaempferol-3,7’-dimethylether). The experiment was performed in HBS containing 1 mM GSH, 0.1% Tween 20 and 1% ethanol. The associated line indicates best fit curves for a one set of sites binding model.

AtGSTU19 [1] = molecular target: T2, AtGSTU19 (Arabidopsis thaliana, UniProt Q9ZRW8); assay: AtGSTU19 enzyme activity, GSH conjugation of 1-chloro-2,4-dinitrobenzene, inhibition; format: biochemical; details: with respect to GSH; substrate 1-chloro-2,4-dinitrobenzene
T2 construct: Strep-tag (N)
Experimental: as §2

AtGSTU19 [2] = molecular target: T2, AtGSTU19; assay: Isothermal titration calorimetry (ITC) of ligand binding to AtGSTU19; details: 25°C, HBS, no cofactor listed
Experimental: as §1, §2
Supplementary Figure S5. Analysis of GSTU19 ligand binding by ITC.
Binding of ISSG to 11.1 uM GSTU19. A best fit line corresponding to a one set of
sites binding model is shown.

GSTU19 = molecular target: T3, GSTU19 (Arabidopsis thaliana, UniProt Q9ZRW8); assay: Isothermal titration calorimetry at 25 °C in HBS, ligand titrated into GSTU19, no GSH marked for these rows, one-set-of-sites fit.; format: binding; details: read-out: Ka (μM^-1) (converted)
T3 construct: recombinant, Strep-tagged
Experimental: as §1
as §2, with “stoichiometry.” for “stoichiometry. With AtGSTF2 the commercially available compounds kaempferol and kaempferol-3,7′-dimethylether were used, along with the methylated flavonols purified from the surface of the tobacco leaves (Table 2 and Supplementary Figure S4).”, “site. […]” for “site.”

GSTUs from poppy = test system: GSTUs from poppy; design: method as in Yu and Facchini, 2000; details: ref Yu and Facchini, 2000; cited from earlier work

T2 sequence (Q9ZRW8 whole entry): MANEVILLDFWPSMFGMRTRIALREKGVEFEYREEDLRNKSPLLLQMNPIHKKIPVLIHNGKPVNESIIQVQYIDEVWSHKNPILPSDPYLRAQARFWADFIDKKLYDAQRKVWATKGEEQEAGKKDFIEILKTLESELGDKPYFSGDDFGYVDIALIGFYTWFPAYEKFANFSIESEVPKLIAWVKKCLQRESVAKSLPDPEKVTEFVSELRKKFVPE
T3 sequence (Q9ZRW8 whole entry): as above

SMILES: COc1cc(O)c2c(=O)c(OC)c(-c3ccc(O)cc3)oc2c1 [Compound 11, kaempferol-3,7′-dimethylether]
- Kd (AtGSTF2): 220 nM

SMILES: COc1ccc(-c2oc3cc(OC)cc(O)c3c(=O)c2OC)cc1 [Compound 13, kaempferol-3,7,4′-trimethylether]
- Kd (AtGSTF2): < 1000 nM
- N (binding stoichiometry) (AtGSTF2): 0.54 ± 0.01
- ΔH (AtGSTF2): -18.4 ± 0.2 kcal/mol

SMILES: NC(CCC(=O)NC(CSSCc1c[nH]c2ccccc12)C(=O)NCC(=O)O)C(=O)O (stereo not drawn) [ISSG, 3-methylindolyl glutathionyl disulfide]
- Mode of inhibition of AtGSTU19 enzyme activity (AtGSTU19 [1]): competitive
- N (binding stoichiometry) (AtGSTU19 [2]): 0.98 ± 0.01
- ΔH (AtGSTU19 [2]): -10.6 ± 0.1 kcal/mol

SMILES: COc1cc(/C=C/C(=O)NCCc2ccc(O)cc2)ccc1O [feruloyltyramine, N-trans-feruloyltyramine]
- Inhibition of poppy GSTUs (in words) (GSTUs from poppy): weakly inhibiting

SMILES: O=c1c(O)c(-c2ccc(O)cc2)oc2cc(O)cc(O)c12 [kaempferol, reference compound]
- Kd (AtGSTF2): 12000 nM
- N (binding stoichiometry) (AtGSTF2): 0.60 ± 0.05
- ΔH (AtGSTF2): -12.6 ± 1.4 kcal/mol

Second part, the compound after the results:

- Kd (GSTU19): 0.117 µM
SMILES: N[C@@H](CCC(=O)N[C@@H](CSSCc1c[nH]c2ccccc12)C(=O)NCC(=O)O)C(=O)O [ISSG, 3-methylindolyl glutathionyl disulfide]

- N (binding stoichiometry) (AtGSTU19 [2]): 0.84 ± 0.01
- ΔH (AtGSTU19 [2]): -11.8 ± 0.1 kcal/mol
SMILES: CCCCCCSC[C@H](NC(=O)CC[C@H](N)C(=O)O)C(=O)NCC(=O)O [S-hexylglutathione, reference compound]

- Kd (GSTU19): 0.311 µM
SMILES: CCCCCCSC[C@H](NC(=O)CC[C@H](N)C(=O)O)C(=O)NCC(=O)O [S-hexylglutathione]
